According to the NIST ThermoML archive (doi:10.1016/j.jct.2019.07.011):

Assay: xn = mol fraction of the nth substance listed
Conditions: Gas, Frequency=0.002 MHz, Spherical resonator

[He] [helium] + C
Conditions | speed of sound [m/s]
273.16 K, 491.07 kPa, x2 = 0.8999 | 449.8
273.16 K, 495.33 kPa, x2 = 0.95 | 438.87
273.16 K, 993.4 kPa, x2 = 0.8999 | 448.5
273.16 K, 1010.2 kPa, x2 = 0.95 | 437.11
273.16 K, 1705.3 kPa, x2 = 0.8999 | 446.82
273.16 K, 2010.6 kPa, x2 = 0.95 | 433.9
273.16 K, 2484.9 kPa, x2 = 0.8999 | 445.25
273.16 K, 2988.8 kPa, x2 = 0.95 | 431.21
273.16 K, 3490.4 kPa, x2 = 0.8999 | 443.67
273.16 K, 4423.3 kPa, x2 = 0.95 | 428.28
273.16 K, 4498.4 kPa, x2 = 0.8999 | 442.69
273.16 K, 5505.7 kPa, x2 = 0.8999 | 442.38
273.16 K, 5984.1 kPa, x2 = 0.95 | 426.79
273.16 K, 6475.9 kPa, x2 = 0.95 | 426.75
273.16 K, 6493 kPa, x2 = 0.8999 | 442.8
273.16 K, 6972.4 kPa, x2 = 0.95 | 426.96
273.16 K, 7508.1 kPa, x2 = 0.8999 | 444.07
273.16 K, 7524.3 kPa, x2 = 0.95 | 427.48
273.16 K, 8481.6 kPa, x2 = 0.8999 | 446.2
273.16 K, 8589.5 kPa, x2 = 0.95 | 429.44
273.16 K, 9521.1 kPa, x2 = 0.8999 | 449.34
273.16 K, 9523.8 kPa, x2 = 0.95 | 432.26
273.16 K, 10522 kPa, x2 = 0.8999 | 453.42
273.16 K, 10523 kPa, x2 = 0.95 | 436.5
273.16 K, 11506 kPa, x2 = 0.95 | 441.94
273.16 K, 11530 kPa, x2 = 0.8999 | 458.54
273.16 K, 12532 kPa, x2 = 0.95 | 449.01
273.16 K, 12638 kPa, x2 = 0.8999 | 465.33
273.16 K, 13317 kPa, x2 = 0.95 | 455.32
273.16 K, 13633 kPa, x2 = 0.8999 | 472.45
273.16 K, 14040 kPa, x2 = 0.95 | 461.81
273.16 K, 14537 kPa, x2 = 0.8999 | 479.7
273.16 K, 14722 kPa, x2 = 0.95 | 468.48
273.16 K, 15299 kPa, x2 = 0.95 | 474.53
273.16 K, 15351 kPa, x2 = 0.8999 | 486.78
273.16 K, 15853 kPa, x2 = 0.95 | 480.65
273.16 K, 16041 kPa, x2 = 0.8999 | 493.25
273.16 K, 16516 kPa, x2 = 0.95 | 488.34
273.16 K, 16537 kPa, x2 = 0.8999 | 498.12
273.16 K, 17032 kPa, x2 = 0.95 | 494.58
273.16 K, 17048 kPa, x2 = 0.8999 | 503.31
273.16 K, 17533 kPa, x2 = 0.95 | 500.83
273.16 K, 17548 kPa, x2 = 0.8999 | 508.55
273.16 K, 18009 kPa, x2 = 0.95 | 506.92
273.16 K, 18059 kPa, x2 = 0.8999 | 514.05
273.16 K, 18537 kPa, x2 = 0.8999 | 519.32
273.16 K, 18552 kPa, x2 = 0.95 | 514.01
273.16 K, 19088 kPa, x2 = 0.95 | 521.16
273.16 K, 19117 kPa, x2 = 0.8999 | 525.88
273.16 K, 19871 kPa, x2 = 0.95 | 531.76
300 K, 482.33 kPa, x2 = 0.8999 | 469.85
300 K, 483.64 kPa, x2 = 0.95 | 458.75
300 K, 985.69 kPa, x2 = 0.95 | 457.69
300 K, 1001 kPa, x2 = 0.8999 | 469.18
300 K, 1985.5 kPa, x2 = 0.8999 | 468.06
300 K, 1996 kPa, x2 = 0.95 | 455.8
300 K, 2984.6 kPa, x2 = 0.8999 | 467.34
300 K, 3212.7 kPa, x2 = 0.95 | 454.1
300 K, 4475.2 kPa, x2 = 0.95 | 453.09
300 K, 4487.3 kPa, x2 = 0.8999 | 467.1
300 K, 5490.1 kPa, x2 = 0.8999 | 467.58
300 K, 5513.3 kPa, x2 = 0.95 | 452.95
300 K, 6460.8 kPa, x2 = 0.95 | 453.38
300 K, 6494.8 kPa, x2 = 0.8999 | 468.59
300 K, 7011.9 kPa, x2 = 0.95 | 453.9
300 K, 7501.4 kPa, x2 = 0.8999 | 470.2
300 K, 7543 kPa, x2 = 0.95 | 454.6
300 K, 8430.8 kPa, x2 = 0.95 | 456.23
300 K, 9026.4 kPa, x2 = 0.8999 | 473.76
300 K, 9344.2 kPa, x2 = 0.95 | 458.51
300 K, 10504 kPa, x2 = 0.8999 | 478.72
300 K, 10534 kPa, x2 = 0.95 | 462.72
300 K, 11500 kPa, x2 = 0.95 | 466.77
300 K, 11505 kPa, x2 = 0.8999 | 482.86
300 K, 12492 kPa, x2 = 0.8999 | 487.56
300 K, 12507 kPa, x2 = 0.95 | 471.79
300 K, 13305 kPa, x2 = 0.95 | 476.35
300 K, 13505 kPa, x2 = 0.8999 | 493.08
300 K, 13998 kPa, x2 = 0.95 | 480.72
300 K, 14495 kPa, x2 = 0.8999 | 499.05
300 K, 14699 kPa, x2 = 0.95 | 485.51
300 K, 15302 kPa, x2 = 0.95 | 489.92
300 K, 15515 kPa, x2 = 0.8999 | 505.8
300 K, 15902 kPa, x2 = 0.95 | 494.56
300 K, 16490 kPa, x2 = 0.8999 | 512.81
300 K, 16491 kPa, x2 = 0.95 | 499.36
300 K, 16994 kPa, x2 = 0.8999 | 516.63
300 K, 17005 kPa, x2 = 0.95 | 503.74
300 K, 17511 kPa, x2 = 0.8999 | 520.69
300 K, 17525 kPa, x2 = 0.95 | 508.33
300 K, 18012 kPa, x2 = 0.8999 | 524.75
300 K, 18013 kPa, x2 = 0.95 | 512.78
300 K, 18515 kPa, x2 = 0.95 | 517.49
300 K, 18523 kPa, x2 = 0.8999 | 529
300 K, 19011 kPa, x2 = 0.95 | 522.29
300 K, 19043 kPa, x2 = 0.8999 | 533.45
300 K, 19447 kPa, x2 = 0.95 | 526.6
300 K, 19955 kPa, x2 = 0.8999 | 541.5
325 K, 473.9 kPa, x2 = 0.8999 | 487
325 K, 479.57 kPa, x2 = 0.95 | 476.04
325 K, 976.85 kPa, x2 = 0.8999 | 486.84
325 K, 979.32 kPa, x2 = 0.95 | 475.45
325 K, 1477.5 kPa, x2 = 0.8999 | 486.66
325 K, 1677.4 kPa, x2 = 0.95 | 474.76
325 K, 2455.5 kPa, x2 = 0.95 | 474.19
325 K, 2481.6 kPa, x2 = 0.8999 | 486.49
325 K, 3481.4 kPa, x2 = 0.95 | 473.83
325 K, 3486.4 kPa, x2 = 0.8999 | 486.7
325 K, 4485.5 kPa, x2 = 0.8999 | 487.28
325 K, 4486.1 kPa, x2 = 0.95 | 473.85
325 K, 5487.2 kPa, x2 = 0.8999 | 488.28
